Reference: patent US20230414657A1, “Novel compositions for neutralizing toxic effects of hydrogen peroxide in living cells or tissues” (Dzala LLC, priority 2020, published 2023)

Experiments:
[1] = tested on: Staphylococcus aureus bacterial culture (ATCC 25923); assay: Antimicrobial effect on bacterial culture, colony count; assay type: cell-based; conditions: 2.5% solution
Protocol: A composition comprising 0.5% Glycine and 0.3% Hydrogen peroxide was prepared on 0.9% sodium chloride solution. Water was sterile purified.
After incubation for 4-5 minutes, sample from each test tube was diluted 1000 times with sterile water, and […] was spread evenly on standard tryptic soy agar petri plate. Plates were incubated at 37° C. for 24 hours and bacterial colonies were counted. As a positive control (100% survival), was taken a sample, where the composition was neutralized by sodium bisulfite instantly (FIG. 10).

[2] = tested on: C. elegans
Protocol: A population of synchronized L1 larvae was added to 30-ml glass tubes containing 2.5 ml of S-complete medium (liquid culture)^2 and NA22 or induced RNAi bacteria at an OD600 of 1.9. […] Worms were incubated at 15° C. and 150 rpm in a shaking incubator for 2-6 days, refreshing the medium every 2 days.
Briefly, for the treatment during larval development worms were incubated in liquid culture under different conditions from L1 until L4, and then transferred onto control NGM plates until death. During the reproductive period (days 1-8), worms were transferred to fresh plates every other day to separate them from their progeny. […] Worms that were missing, displaying internal egg hatching, losing vulva integrity, and burrowing into NGM agar were censored. Progeny number and embryonic lethality was determined the day after transferring the adult animals to fresh plates. Statistical analyses of lifespan were calculated by Log-rank (Mantel-Cox) tests on the Kaplan-Meier curves in GraphPad Prism. For progeny number and embryonic lethality, the significance of differences between conditions was determined using an unpaired t-test in GraphPadPrism 8.0. All experiments were performed in triplicate.

[3] = 0.25% hydrogen peroxide alone in drinking water
[4] = tested on: C. elegans; assay: Oxygen consumption rate (OCR), Seahorse XFe96; assay type: in vivo; conditions: H2O2 alone (100 mM)
Protocol: Oxygen consumption of worms was measured with a Seahorse XFe96 system (Seahorse Bioscience, North Billerica, MA), as previously described^4. L3 larvae of the different strains were grown on plates or in liquid culture and supplemented for 2-4 days as described for each experiment. After removing bacteria and debris, approximately 100 worms were pipetted into each well of a 96-well Seahorse XF^e assay plate and OCR was measured until it stabilized. Then, 3 subsequent measurements were made at 6.5-min intervals. Finally, the exact number of worms in each well was counted and used for normalization. A small number of abnormal readings were also filtered out at this stage. On average, 7-8 wells (technical replicates) were used for each condition. Normalized OCR values were averaged for the last 3 measurements for each strain and condition. Four biological replicates were analyzed for each condition.

[5] = tested on: C. elegans; assay: NADPH and NADP+ quantification by LC-MS; assay type: in vivo
Protocol: To measure NADP^+ and NADPH from C. elegans, 10000-15000 L1 worms were exposed to each condition in duplicates for 3 days and then washed four times with H2O. […] 25 µM solutions of each nucleotide were treated in parallel as standards. Homogenization for 15 min at 4° C. and 300 g was carried out in a TissueLyser II (Qiagen) after adding ⅓ volume of 0.5 mm zirconium beads. The resulting mixture was centrifuged at 13,000 g and the supernatant transferred to a new tube.
LC-MS/MS analysis of the samples was performed on a high-performance liquid chromatography (HPLC) system (1200 Agilent) coupled online to G2-S QTOF (Waters). For normal phase chromatography Bridge Amide 3.5 ml (2.1×100 mm) column from Waters was used. The mobile phase composed of eluent A and eluent B (40% acetonitrile, 0.1 mM ammonium acetate and 0.01% NH40H) was applied with the following gradient program: Eluent B, from 0% to 100% within 18 min; 100% from 18 min to 21 min; 0% from 21 min to 26 min. The flow rate was set at 0.3 ml/min. The spray voltage was set at 3.0 kV and the source temperature was set at 120° C. Nitrogen was used as both cone gas (50 L/h) and desolvation gas (800 L/h), and argon as the collision gas. MS^E mode was used with Bridge Amide 3.5 µl (2.1×100 mm) column in ESI negative ionization polarity for the detection of the nucleosides. Mass chromatograms and mass spectral data were acquired and processed by MassLynx software (Waters). Three and four biological replicates were analyzed for each condition of mel-32 RNAi and EV, respectively.

[6] = tested on: gox-1, ghpr-1, gcst-1, mel-32 and gcs-1 genes; assay: Quantitative real-time PCR of glycolate pathway genes; assay type: in vivo, C. elegans
Protocol: The differential expression of F41E6.5 (gox-1), C31C9.2 (ghpr-1), gcst-1, mel-32 and gcs-1 genes was measured using qRT-PCR. ˜5000 L1 N2 worms were exposed to each condition for 3 days at 15° Cas described above and then washed three times with H2O. Total RNA was isolated using the RNeasy Mini Kit (Qiagen) and equal amounts of all samples were reverse transcribed with SuperScript Ill (Invitrogen) using oligo(dT) 12-18 primers. cDNA quality was tested using standard PCR. qRT-PCR was performed using pre-designed TaqMan Gene Expression Assay (ThermoFischer Scientific) with at least three samples in triplicates. For the relative quantification of gene expression levels, the 2^−ΔΔCT method and results were normalized to the expression level of the cdc-42 gene. Expression levels were averaged over technical and biological replicates, […]

[7] = tested on: C. elegans; assay: Growth rate / worm size; assay type: in vivo; conditions: H2O2 alone (100 mM)
Protocol: Synchronized L1 worms were incubated at 15° C. on plates or in liquid culture and exposed to different conditions as indicated. Single worms were selected randomly from the plates or aliquots were taken from the liquid cultures and added to NGM plates for immediate visualization. 25 worms per treatment were measured at 24-48 hr intervals and all growth curves were done four times.

[8] = tested on: C. elegans; assay: Quantification of glutathione (GSH/GSSG-Glo); assay type: in vivo
Protocol: Sample preparation was performed as described previously with some modifications^6. From each condition 10,000 synchronized animals were harvested and washed 3 times with sterile water. […] To thoroughly lyse the worms, 5 cycles of freezing and thawing were performed in a water bath at 37° C., followed by a 1-min sonication. The samples were then centrifuged and the supernatant tested for protein estimation and GSH quantification. Total GSH, GSSG, and GSH/GSSG ratios were quantified using the GSH/GSSG-Glo assay kit (Promega) following the instructions of the manufacturer. Briefly, each sample was tested in triplicate in 96-well culture plates with total glutathione or GSSG lysis reagent, for total glutathione or GSSG measurement, respectively. The GSH probe, luciferin-NT, was converted to luciferin, which is coupled to a firefly luciferase. The plates were then read in an […] plate reader (Perkin Elmer, United States). The GSSG value was subtracted from the total glutathione to calculate GSH levels and GSH/GSSG ratio. Four biological replicates were analyzed for each condition.

Structure (SMILES)	Antimicrobial effect of the neutralizer on itself [1]	Reproductive capacity ([2]; H2O2 alone)	Lifespan ([2]; exposed to H2O2 alone during larval stages, then control plates, control worms 18.5+/−1.19 days) [days]	Effect on weight [3]	Respiration rate (OCR) [4]	Ratio of NADPH to NADP+ ([5]; H2O2 alone (100 mM), 3 days)	Ratio of NADPH to NADP+ ([5]; mel-32 knocked down worms, H2O2 alone)	Expression of gcst-1 ([6]; peroxide or glycolate supplementation)	Expression of gox-1, ghpr-1, mel-32 and gcs-1 ([6]; worms exposed to different peroxide concentrations, 3 days)	Growth [7]	Oxidized form of glutathione (GSSG) ([8]; H2O2 alone (100 mM))	Total glutathione ([8]; H2O2 alone (100 mM), 3 days)	GSH/GSSG ratio ([8]; H2O2 alone, control 107.5)	Reduction of GSH/GSSG ratio ([8]; peroxide alone vs control)
O=S([O-])O.[Na+] [sodium bisulfite]	no antimicrobial effect	–	–	–	–	–	–	–	–	–	–	–	–	–
OO [H2O2, hydrogen peroxide]	–	reduced reproductive capacity	5.88 ± 1.47	slight positive effect	decline in the respiration rate	significantly decreased	further decline	not significantly altered	significant induction	growth delay	513 % of the control	51 % of the control	11.3	10 -fold
